Laboratory results reported in ChEMBL document CHEMBL1201862, “PubChem BioAssay data set” (2004).
Structures can show the parent of a compound that is named as a salt.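 A five-concentration, 48-hour dose response in 96-well plates underlies each endpoint, interpolated linearly between surrounding concentrations. GI50 = concentration required for 50% inhibition of growth.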 Calls of active or inactive are those of the source. No stated cut-off is given here; in the data, active = GI50 up to about 1.1 µM and inactive = higher.

Columns and labels:
Assay in all cases: NCI anticancer screen, dose series, 48 h
A498 = tested on: A498
HOP-92 = tested on: HOP-92
HOP-62 = tested on: HOP-62
SK-MEL-28 = tested on: SK-MEL-28
SF-268 = tested on: SF-268
HCC 2998 = tested on: HCC 2998
786-0 = tested on: 786-0
SF-295 = tested on: SF-295
SW-620 = tested on: SW-620
OVCAR-4 = tested on: OVCAR-4
KM12 = tested on: KM12
CCRF-CEM = tested on: CCRF-CEM
MOLT-4 = tested on: MOLT-4
OVCAR-3 = tested on: OVCAR-3
NCI-H226 = tested on: NCI-H226
SN12C = tested on: SN12C
SR = tested on: SR

Compound | GI50 (A498) | GI50 (HOP-92) | GI50 (HOP-62) | GI50 (SK-MEL-28) | GI50 (SF-268) | GI50 (HCC 2998) | GI50 (786-0) | GI50 (SF-295) | GI50 (SW-620) | GI50 (OVCAR-4) | GI50 (KM12) | GI50 (CCRF-CEM) | GI50 (MOLT-4) | GI50 (OVCAR-3) | GI50 (NCI-H226) | GI50 (SN12C) | GI50 (SR)
O=C1CCC(=O)C1=NNc1cc(Cl)cc(Cl)c1 | 15.6 µM (inactive) | > 100 µM (inactive) | > 100 µM (inactive) | > 100 µM (inactive) | > 100 µM (inactive) | > 100 µM (inactive) | > 100 µM (inactive) | > 100 µM (inactive) | > 100 µM (inactive) | > 100 µM (inactive) | > 100 µM (inactive) | 47.8 µM (inactive) | 53.8 µM (inactive) | 26.2 µM (inactive) | > 100 µM (inactive) | > 100 µM (inactive) | –
O=c1[nH]c(C2CCCCC2)nc2c(Cl)cccc12 | > 100 µM (inactive) | > 100 µM (inactive) | > 100 µM (inactive) | > 100 µM (inactive) | > 100 µM (inactive) | > 100 µM (inactive) | > 100 µM (inactive) | > 100 µM (inactive) | > 100 µM (inactive) | > 100 µM (inactive) | > 100 µM (inactive) | > 100 µM (inactive) | – | > 100 µM (inactive) | > 100 µM (inactive) | > 100 µM (inactive) | –
CCCCN(CC)C(=O)C(=O)Cc1nc2ccc(C(=O)c3ccccc3)cc2nc1O | > 100 µM (inactive) | 53 µM (inactive) | > 100 µM (inactive) | 73.3 µM (inactive) | > 100 µM (inactive) | – | > 100 µM (inactive) | 59 µM (inactive) | > 100 µM (inactive) | > 100 µM (inactive) | > 100 µM (inactive) | 27.2 µM (inactive) | 21.1 µM (inactive) | > 100 µM (inactive) | > 67.9 µM (inactive) | > 86.1 µM (inactive) | 21.6 µM (inactive)
CN(C)c1ccc(/C=c2\sc3nnc(-c4ccco4)n3c2=O)cc1 | > 100 µM (inactive) | > 100 µM (inactive) | > 100 µM (inactive) | > 100 µM (inactive) | > 100 µM (inactive) | > 100 µM (inactive) | > 100 µM (inactive) | > 100 µM (inactive) | > 100 µM (inactive) | > 100 µM (inactive) | > 100 µM (inactive) | > 100 µM (inactive) | > 100 µM (inactive) | > 100 µM (inactive) | > 100 µM (inactive) | > 100 µM (inactive) | –
COc1nc(NC2OC(COC(C)=O)C(OC(C)=O)C(OC(C)=O)C2OC(C)=O)c2c(OC(C)=O)c(C)c(=O)oc2n1 (stereo not given) | 1.75 µM (inactive) | > 100 µM (inactive) | > 100 µM (inactive) | – | – | > 100 µM (inactive) | > 100 µM (inactive) | > 100 µM (inactive) | > 100 µM (inactive) | > 100 µM (inactive) | > 100 µM (inactive) | > 100 µM (inactive) | > 100 µM (inactive) | > 100 µM (inactive) | > 100 µM (inactive) | > 100 µM (inactive) | –
OCC(CO)C1c2cccc3ccc4cccc1c4c23 | > 100 µM (inactive) | 80.9 µM (inactive) | > 100 µM (inactive) | > 100 µM (inactive) | > 100 µM (inactive) | – | > 100 µM (inactive) | > 100 µM (inactive) | > 100 µM (inactive) | > 100 µM (inactive) | > 100 µM (inactive) | > 100 µM (inactive) | > 100 µM (inactive) | > 100 µM (inactive) | 67.5 µM (inactive) | > 100 µM (inactive) | > 100 µM (inactive)
Cn1c(=O)c2[nH]cnc2n(CC(=O)O)c1=O | > 100 µM (inactive) | > 100 µM (inactive) | > 100 µM (inactive) | > 100 µM (inactive) | > 100 µM (inactive) | – | > 100 µM (inactive) | – | > 100 µM (inactive) | – | > 100 µM (inactive) | > 100 µM (inactive) | > 100 µM (inactive) | > 100 µM (inactive) | > 100 µM (inactive) | > 100 µM (inactive) | > 100 µM (inactive)
Nc1nc(NCCO)c(N=O)c(=O)[nH]1 | > 100 µM (inactive) | > 100 µM (inactive) | > 100 µM (inactive) | > 100 µM (inactive) | > 100 µM (inactive) | – | > 100 µM (inactive) | > 100 µM (inactive) | > 100 µM (inactive) | > 100 µM (inactive) | > 100 µM (inactive) | > 100 µM (inactive) | – | > 100 µM (inactive) | > 100 µM (inactive) | > 100 µM (inactive) | –
O=C(Cc1c(C(=O)Nc2ccccc2)sc(C(=O)Nc2ccccc2)c1CC(=O)Nc1ccccc1)Nc1ccccc1 | > 100 µM (inactive) | > 100 µM (inactive) | > 100 µM (inactive) | 0.719 µM (active) | 0.446 µM (active) | > 100 µM (inactive) | > 100 µM (inactive) | > 100 µM (inactive) | > 100 µM (inactive) | > 100 µM (inactive) | > 100 µM (inactive) | > 100 µM (inactive) | – | > 100 µM (inactive) | > 100 µM (inactive) | > 100 µM (inactive) | –
NC(=O)NNC(=O)NC12CC3CC(CC(C3)C1)C2 | > 100 µM (inactive) | > 100 µM (inactive) | > 100 µM (inactive) | > 100 µM (inactive) | > 100 µM (inactive) | > 100 µM (inactive) | > 100 µM (inactive) | > 100 µM (inactive) | > 100 µM (inactive) | > 100 µM (inactive) | > 100 µM (inactive) | > 100 µM (inactive) | > 100 µM (inactive) | > 100 µM (inactive) | > 100 µM (inactive) | > 100 µM (inactive) | –
CCOC(=O)C12CCCC1(O)N(NC(=O)c1ccccc1)C(C)=C2C(=O)OC (stereo not given) | > 100 µM (inactive) | > 100 µM (inactive) | > 100 µM (inactive) | – | > 100 µM (inactive) | > 100 µM (inactive) | > 100 µM (inactive) | > 100 µM (inactive) | > 100 µM (inactive) | > 100 µM (inactive) | > 100 µM (inactive) | > 100 µM (inactive) | > 100 µM (inactive) | > 100 µM (inactive) | > 100 µM (inactive) | > 100 µM (inactive) | –
CCCNC(=S)NNC(=O)CSc1nc(-c2ccccc2)c(-c2ccccc2)[nH]1 | 77.6 µM (inactive) | 23.5 µM (inactive) | > 100 µM (inactive) | > 100 µM (inactive) | > 100 µM (inactive) | – | 37 µM (inactive) | 54.6 µM (inactive) | 99.3 µM (inactive) | 45.1 µM (inactive) | 33 µM (inactive) | 38.1 µM (inactive) | 24.2 µM (inactive) | 28 µM (inactive) | 91.6 µM (inactive) | 74 µM (inactive) | 29.2 µM (inactive)
COC(=O)/C=C(\C(=O)OC)c1c2c3c(cc(OC)c(OC)c3c3ccccc13)CCN2C | – | 44.9 µM (inactive) | 25.1 µM (inactive) | 38.3 µM (inactive) | > 100 µM (inactive) | 33.7 µM (inactive) | 70.8 µM (inactive) | 78.9 µM (inactive) | 35.5 µM (inactive) | – | 36.1 µM (inactive) | 24 µM (inactive) | 24.1 µM (inactive) | 28.2 µM (inactive) | 29.6 µM (inactive) | 58.6 µM (inactive) | 26.1 µM (inactive)
COc1ccc2c(c1)C(O)(C(F)(F)F)c1cc(C(=O)C(F)(F)F)c3ccccc3c1N2 (stereo not given) | 14.3 µM (inactive) | 16 µM (inactive) | – | 14.6 µM (inactive) | 10.2 µM (inactive) | 11.9 µM (inactive) | 13.5 µM (inactive) | 13.2 µM (inactive) | 13.9 µM (inactive) | 10.5 µM (inactive) | 4.35 µM (inactive) | 7.94 µM (inactive) | 8.99 µM (inactive) | 14.9 µM (inactive) | 12.8 µM (inactive) | – | –
Cc1cc(C)nc(NS(=O)(=O)c2ccc(NC(=O)c3ccc(Cl)c4c(Nc5ccc(S(=O)(=O)Nc6nc(C)cc(C)n6)cc5)c5ccccc5nc34)cc2)n1 | 23.8 µM (inactive) | 2.08 µM (inactive) | 6.44 µM (inactive) | 4.28 µM (inactive) | 4.41 µM (inactive) | – | 5.18 µM (inactive) | 25.4 µM (inactive) | 18.2 µM (inactive) | 11 µM (inactive) | 21.8 µM (inactive) | 4.09 µM (inactive) | 4.5 µM (inactive) | 29.2 µM (inactive) | – | 3.14 µM (inactive) | –
O=C1Cc2c([nH]c3ccccc23)-c2cc(Br)ccc2N1 | > 100 µM (inactive) | > 100 µM (inactive) | > 100 µM (inactive) | > 100 µM (inactive) | > 100 µM (inactive) | > 100 µM (inactive) | > 100 µM (inactive) | > 100 µM (inactive) | > 100 µM (inactive) | > 100 µM (inactive) | > 100 µM (inactive) | > 100 µM (inactive) | > 100 µM (inactive) | > 100 µM (inactive) | > 100 µM (inactive) | > 100 µM (inactive) | –
COc1ccc2[nH]c3c(cnn4cnnc34)c2c1 | – | > 100 µM (inactive) | > 100 µM (inactive) | > 100 µM (inactive) | > 100 µM (inactive) | > 100 µM (inactive) | > 100 µM (inactive) | > 100 µM (inactive) | > 100 µM (inactive) | > 100 µM (inactive) | > 100 µM (inactive) | > 100 µM (inactive) | > 100 µM (inactive) | > 100 µM (inactive) | – | > 100 µM (inactive) | –
COC(=O)C1=CO[C@@H](C)[C@@H]2Cn3ccc4c5ccccc5nc-4c3C[C@H]12 [ALSTONINE HYDROCHLORIDE] | > 100 µM (inactive) | 92.9 µM (inactive) | > 100 µM (inactive) | > 100 µM (inactive) | > 100 µM (inactive) | – | > 100 µM (inactive) | > 100 µM (inactive) | > 100 µM (inactive) | > 100 µM (inactive) | – | > 100 µM (inactive) | 90.6 µM (inactive) | 87.1 µM (inactive) | > 100 µM (inactive) | > 100 µM (inactive) | –
